What is called inhibition is the change of the read-out against control, counted positive when it falls. As a reminder, the Ki is a measure of affinity in units of concentration, obtained from inhibition or displacement.

The values that follow come from ChEMBL document CHEMBL1148572, “1-((S)-2-aminopropyl)-1H-indazol-6-ol: a potent peripherally acting 5-HT2 receptor agonist with ocular hypotensive activity” (J Med Chem, 2006).

For series [1], the species on record is Homo sapiens. Briefly: Inhibition of inositol triphosphate IP3 at 1 nM. Format: functional.
Series [2] can be described thus: Inhibitory activity at calcium activated potassium channel 6 at 1 nM.
For series [3], the target named is T1, Cysteinyl leukotriene receptor 1 (Homo sapiens) (UniProt Q9Y271).
T1 sequence (whole entry): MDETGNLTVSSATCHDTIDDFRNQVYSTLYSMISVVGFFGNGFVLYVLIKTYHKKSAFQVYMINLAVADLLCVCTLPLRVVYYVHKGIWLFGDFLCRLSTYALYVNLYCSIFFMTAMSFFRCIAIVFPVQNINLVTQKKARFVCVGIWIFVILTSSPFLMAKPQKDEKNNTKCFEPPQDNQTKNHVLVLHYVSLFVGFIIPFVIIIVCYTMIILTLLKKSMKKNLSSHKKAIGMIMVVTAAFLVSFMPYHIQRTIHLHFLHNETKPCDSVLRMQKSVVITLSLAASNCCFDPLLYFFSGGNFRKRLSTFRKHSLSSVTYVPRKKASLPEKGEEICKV
Briefly: Inhibition of leukotriene D4 at 100 nM.

A short description of series [4]: Inhibition of non selective binding to VIP at 1 nM.
For series [5], the target named is Adenosine receptor (Homo sapiens) (UniProt P30542+P29275+P0DMS8+P29274). Briefly: Inhibition of non selective binding to adenosine receptor at 100 nM. It is filed as protein assay.
The target in series [6] is Platelet-activating factor receptor (Homo sapiens) (UniProt P25105). Briefly: Inhibition of PAF at 100 nM.
Series [7] has as its target T2, GABA-A receptor; benzodiazepine site (Homo sapiens) (UniProt P14867+P18507+P48169+Q99928+P34903+Q8N1C3+P47869+P31644+Q16445). Briefly: Inhibition of central benzodiazepine site on GABAA receptor at 10 uM. Format: protein-complex assay.
Series [8] concerns the target T2, GABA-A receptor; benzodiazepine site (Homo sapiens). Briefly: Inhibition of central benzodiazepine site on GABAA receptor at 1 nM. Format: protein-complex assay.
Series [9] deals with T3, B2 bradykinin receptor (Homo sapiens) (UniProt P30411).
T3 sequence (whole entry): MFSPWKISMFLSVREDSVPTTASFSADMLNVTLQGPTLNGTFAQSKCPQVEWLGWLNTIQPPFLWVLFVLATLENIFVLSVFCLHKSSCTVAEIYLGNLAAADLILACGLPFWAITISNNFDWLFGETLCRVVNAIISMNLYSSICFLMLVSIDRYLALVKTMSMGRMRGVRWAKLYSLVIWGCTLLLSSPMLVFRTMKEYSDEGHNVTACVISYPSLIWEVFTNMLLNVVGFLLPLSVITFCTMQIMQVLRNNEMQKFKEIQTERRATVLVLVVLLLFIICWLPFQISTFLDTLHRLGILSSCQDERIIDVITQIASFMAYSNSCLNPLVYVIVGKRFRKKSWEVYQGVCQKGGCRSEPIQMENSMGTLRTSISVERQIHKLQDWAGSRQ
The experiment in a line: Inhibition of bradykinin 2 receptor at 100 nM.

Series [10] is filed under the species Homo sapiens. Briefly: Inhibition of inositol triphosphate IP3 at 10 uM. It is filed as functional.
Series [11] deals with L-type calcium channel, dihydropyridine site (Homo sapiens, UniProt O60840+Q01668+Q13698+Q13936). The experiment in a line: Inhibitory activity at dihydropyridine site of Calcium channel L type at 100 nM. It is filed as protein assay.
Series [12] has as its target Opioid receptors; mu/kappa/delta (Homo sapiens) (UniProt P41145+P41143+P35372). The experiment in a line: Inhibition of non selective binding to opiate receptor at 10 uM. Format: protein assay.
Series [13] addresses Glutamate [NMDA] receptor (Homo sapiens) (UniProt Q05586+Q12879+Q13224+O15399+O60391+Q14957+Q8TCU5). The experiment in a line: Inhibition of MK-801 site of glutamate receptor at 10 uM. Format: protein-complex assay.
Series [14] is described as follows: Inhibitory activity at site 2 of sodium channel at 100 nM.
Series [15] addresses Voltage-dependent N-type calcium channel subunit alpha-1B (Homo sapiens) (UniProt Q00975). The experiment in a line: Inhibitory activity at Calcium channel N type at 100 nM.
Series [16] concerns the target 5-hydroxytryptamine receptor 4 (Homo sapiens, UniProt Q13639). The experiment in a line: Inhibitory activity against 5HT4 receptor.
The target of series [17] is T4, Androgen receptor (Homo sapiens) (UniProt P10275).
T4 sequence (whole entry): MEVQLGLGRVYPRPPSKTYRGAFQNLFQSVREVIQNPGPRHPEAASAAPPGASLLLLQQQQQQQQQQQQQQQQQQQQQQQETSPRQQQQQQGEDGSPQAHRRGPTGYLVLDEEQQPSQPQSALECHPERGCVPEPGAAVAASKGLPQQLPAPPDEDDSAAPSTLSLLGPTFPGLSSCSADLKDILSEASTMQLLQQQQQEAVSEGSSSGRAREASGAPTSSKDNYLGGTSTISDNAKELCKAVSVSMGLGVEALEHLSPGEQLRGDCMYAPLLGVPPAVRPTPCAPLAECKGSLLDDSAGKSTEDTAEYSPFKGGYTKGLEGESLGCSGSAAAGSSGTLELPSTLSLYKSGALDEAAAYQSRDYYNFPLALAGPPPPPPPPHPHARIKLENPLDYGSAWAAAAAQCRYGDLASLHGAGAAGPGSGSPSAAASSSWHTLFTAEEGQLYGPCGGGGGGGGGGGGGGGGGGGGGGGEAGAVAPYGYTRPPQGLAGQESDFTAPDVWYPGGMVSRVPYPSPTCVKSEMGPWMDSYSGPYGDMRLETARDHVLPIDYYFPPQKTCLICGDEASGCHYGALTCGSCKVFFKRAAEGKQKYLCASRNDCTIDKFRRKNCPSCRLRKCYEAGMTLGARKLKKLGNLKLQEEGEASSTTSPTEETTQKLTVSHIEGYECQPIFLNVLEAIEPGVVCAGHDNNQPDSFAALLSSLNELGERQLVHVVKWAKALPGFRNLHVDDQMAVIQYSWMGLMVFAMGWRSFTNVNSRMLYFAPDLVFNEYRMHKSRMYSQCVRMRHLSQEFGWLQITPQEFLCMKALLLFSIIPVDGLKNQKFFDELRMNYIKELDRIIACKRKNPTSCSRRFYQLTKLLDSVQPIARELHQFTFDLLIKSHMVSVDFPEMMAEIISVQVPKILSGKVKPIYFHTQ
The experiment in a line: Inhibition of testosterone receptor at 10 uM.

Voltage-dependent N-type calcium channel subunit alpha-1B (Homo sapiens), sequence (Q00975 whole entry, looked up): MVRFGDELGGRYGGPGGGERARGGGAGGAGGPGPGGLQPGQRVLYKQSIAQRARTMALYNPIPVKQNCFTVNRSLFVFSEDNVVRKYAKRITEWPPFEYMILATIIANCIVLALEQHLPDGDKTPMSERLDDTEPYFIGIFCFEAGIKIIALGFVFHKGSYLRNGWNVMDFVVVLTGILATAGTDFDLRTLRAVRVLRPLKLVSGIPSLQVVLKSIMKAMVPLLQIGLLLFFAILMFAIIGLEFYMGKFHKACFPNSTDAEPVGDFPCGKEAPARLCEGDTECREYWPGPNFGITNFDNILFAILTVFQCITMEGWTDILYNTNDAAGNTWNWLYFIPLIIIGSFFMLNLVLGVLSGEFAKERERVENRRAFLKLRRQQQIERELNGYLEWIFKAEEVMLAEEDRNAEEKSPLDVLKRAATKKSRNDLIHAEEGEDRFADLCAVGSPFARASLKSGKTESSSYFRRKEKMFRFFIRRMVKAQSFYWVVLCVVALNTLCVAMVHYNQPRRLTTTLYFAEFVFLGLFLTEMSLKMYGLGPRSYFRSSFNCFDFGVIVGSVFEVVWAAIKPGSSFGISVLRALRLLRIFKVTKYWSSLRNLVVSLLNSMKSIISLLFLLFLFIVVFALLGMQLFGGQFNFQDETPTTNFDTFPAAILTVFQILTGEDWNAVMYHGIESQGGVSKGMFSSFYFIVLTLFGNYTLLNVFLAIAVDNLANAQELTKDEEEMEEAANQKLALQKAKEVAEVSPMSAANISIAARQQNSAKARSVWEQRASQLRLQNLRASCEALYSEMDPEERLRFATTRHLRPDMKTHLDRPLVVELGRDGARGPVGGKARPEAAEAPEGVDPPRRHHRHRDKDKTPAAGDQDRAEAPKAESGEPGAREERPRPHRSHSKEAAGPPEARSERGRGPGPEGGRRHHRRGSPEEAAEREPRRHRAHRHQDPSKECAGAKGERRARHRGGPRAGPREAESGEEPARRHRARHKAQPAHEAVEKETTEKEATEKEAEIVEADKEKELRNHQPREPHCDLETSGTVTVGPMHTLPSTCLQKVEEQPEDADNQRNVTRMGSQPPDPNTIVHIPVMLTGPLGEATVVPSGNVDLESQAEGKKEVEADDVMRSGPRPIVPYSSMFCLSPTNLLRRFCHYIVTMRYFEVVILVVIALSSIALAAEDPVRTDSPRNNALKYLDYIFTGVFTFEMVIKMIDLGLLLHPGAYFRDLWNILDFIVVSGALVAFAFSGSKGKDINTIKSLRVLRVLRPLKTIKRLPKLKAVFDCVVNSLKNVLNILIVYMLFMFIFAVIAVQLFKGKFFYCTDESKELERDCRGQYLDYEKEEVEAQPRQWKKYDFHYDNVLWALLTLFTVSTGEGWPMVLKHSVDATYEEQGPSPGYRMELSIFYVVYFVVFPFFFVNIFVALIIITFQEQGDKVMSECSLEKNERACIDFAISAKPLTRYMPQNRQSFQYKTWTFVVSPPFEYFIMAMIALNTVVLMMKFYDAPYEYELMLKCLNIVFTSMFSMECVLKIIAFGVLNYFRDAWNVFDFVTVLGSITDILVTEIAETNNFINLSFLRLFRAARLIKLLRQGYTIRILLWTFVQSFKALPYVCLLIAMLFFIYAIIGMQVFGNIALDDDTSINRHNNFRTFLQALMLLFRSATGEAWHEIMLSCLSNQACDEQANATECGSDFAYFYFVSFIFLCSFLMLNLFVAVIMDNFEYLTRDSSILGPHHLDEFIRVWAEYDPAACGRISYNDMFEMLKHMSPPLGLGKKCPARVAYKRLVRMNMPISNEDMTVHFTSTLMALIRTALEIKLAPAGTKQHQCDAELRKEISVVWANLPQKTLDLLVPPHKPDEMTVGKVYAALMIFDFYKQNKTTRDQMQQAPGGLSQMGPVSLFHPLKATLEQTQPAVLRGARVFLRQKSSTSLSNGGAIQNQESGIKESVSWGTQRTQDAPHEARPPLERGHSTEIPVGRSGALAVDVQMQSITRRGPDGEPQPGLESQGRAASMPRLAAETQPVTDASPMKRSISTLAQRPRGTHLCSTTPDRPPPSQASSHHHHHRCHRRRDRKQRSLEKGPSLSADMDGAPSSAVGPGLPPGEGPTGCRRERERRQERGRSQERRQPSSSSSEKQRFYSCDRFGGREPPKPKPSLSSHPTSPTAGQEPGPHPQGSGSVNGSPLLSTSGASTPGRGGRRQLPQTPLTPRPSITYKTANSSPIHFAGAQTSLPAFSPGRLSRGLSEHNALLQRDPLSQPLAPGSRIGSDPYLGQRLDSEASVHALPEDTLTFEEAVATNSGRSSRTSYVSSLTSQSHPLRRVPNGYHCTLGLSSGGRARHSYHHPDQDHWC
Platelet-activating factor receptor (Homo sapiens), sequence (P25105 whole entry): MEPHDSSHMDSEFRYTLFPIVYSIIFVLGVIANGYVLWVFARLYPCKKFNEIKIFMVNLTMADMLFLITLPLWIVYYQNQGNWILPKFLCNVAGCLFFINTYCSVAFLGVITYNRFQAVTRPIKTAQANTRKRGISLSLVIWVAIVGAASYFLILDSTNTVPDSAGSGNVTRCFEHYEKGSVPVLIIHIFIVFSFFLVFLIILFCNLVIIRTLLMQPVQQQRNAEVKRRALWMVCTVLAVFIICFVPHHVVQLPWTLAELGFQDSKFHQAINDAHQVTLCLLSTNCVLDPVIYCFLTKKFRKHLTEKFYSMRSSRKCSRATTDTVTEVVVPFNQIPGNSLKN
Adenosine receptor (Homo sapiens), sequence (P0DMS8 whole entry, looked up): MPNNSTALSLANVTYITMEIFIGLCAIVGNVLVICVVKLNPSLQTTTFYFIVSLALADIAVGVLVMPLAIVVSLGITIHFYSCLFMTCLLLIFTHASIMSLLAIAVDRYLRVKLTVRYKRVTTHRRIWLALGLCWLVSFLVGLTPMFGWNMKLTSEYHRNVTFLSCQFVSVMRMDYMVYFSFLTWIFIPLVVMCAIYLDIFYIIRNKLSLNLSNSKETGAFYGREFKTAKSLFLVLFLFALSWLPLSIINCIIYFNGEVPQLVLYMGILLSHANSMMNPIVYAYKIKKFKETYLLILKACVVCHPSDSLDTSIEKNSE
Adenosine receptor (Homo sapiens), sequence (P29274 whole entry, looked up): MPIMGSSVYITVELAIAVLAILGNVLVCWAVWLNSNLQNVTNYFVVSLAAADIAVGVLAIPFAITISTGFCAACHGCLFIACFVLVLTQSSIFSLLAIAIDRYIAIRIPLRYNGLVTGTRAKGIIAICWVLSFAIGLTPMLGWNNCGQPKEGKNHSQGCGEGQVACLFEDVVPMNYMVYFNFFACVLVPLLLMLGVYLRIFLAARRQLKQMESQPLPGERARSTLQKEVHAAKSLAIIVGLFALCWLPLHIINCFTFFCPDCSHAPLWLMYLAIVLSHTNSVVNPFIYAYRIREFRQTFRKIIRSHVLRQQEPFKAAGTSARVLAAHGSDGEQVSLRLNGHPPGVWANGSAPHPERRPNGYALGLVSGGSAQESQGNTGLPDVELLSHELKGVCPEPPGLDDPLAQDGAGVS
Adenosine receptor (Homo sapiens), sequence (P29275 whole entry, looked up): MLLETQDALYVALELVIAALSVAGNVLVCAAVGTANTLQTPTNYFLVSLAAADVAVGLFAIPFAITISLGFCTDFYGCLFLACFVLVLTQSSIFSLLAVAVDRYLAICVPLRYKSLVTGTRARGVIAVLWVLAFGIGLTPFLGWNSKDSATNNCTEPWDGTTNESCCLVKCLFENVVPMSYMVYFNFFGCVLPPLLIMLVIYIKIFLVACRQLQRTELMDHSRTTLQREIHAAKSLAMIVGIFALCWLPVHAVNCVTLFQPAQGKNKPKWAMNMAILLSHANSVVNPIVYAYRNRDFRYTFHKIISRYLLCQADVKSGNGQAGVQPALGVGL
Adenosine receptor (Homo sapiens), sequence (P30542 whole entry, looked up): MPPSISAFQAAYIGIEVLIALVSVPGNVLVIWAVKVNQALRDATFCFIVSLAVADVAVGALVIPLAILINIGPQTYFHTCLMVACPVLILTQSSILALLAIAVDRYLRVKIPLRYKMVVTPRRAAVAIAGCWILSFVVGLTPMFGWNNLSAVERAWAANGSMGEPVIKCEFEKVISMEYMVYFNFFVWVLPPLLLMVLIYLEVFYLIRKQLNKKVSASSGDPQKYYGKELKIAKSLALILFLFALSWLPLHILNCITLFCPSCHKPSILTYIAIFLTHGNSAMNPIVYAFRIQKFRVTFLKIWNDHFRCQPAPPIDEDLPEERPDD
5-hydroxytryptamine receptor 4, sequence (Q13639 whole entry): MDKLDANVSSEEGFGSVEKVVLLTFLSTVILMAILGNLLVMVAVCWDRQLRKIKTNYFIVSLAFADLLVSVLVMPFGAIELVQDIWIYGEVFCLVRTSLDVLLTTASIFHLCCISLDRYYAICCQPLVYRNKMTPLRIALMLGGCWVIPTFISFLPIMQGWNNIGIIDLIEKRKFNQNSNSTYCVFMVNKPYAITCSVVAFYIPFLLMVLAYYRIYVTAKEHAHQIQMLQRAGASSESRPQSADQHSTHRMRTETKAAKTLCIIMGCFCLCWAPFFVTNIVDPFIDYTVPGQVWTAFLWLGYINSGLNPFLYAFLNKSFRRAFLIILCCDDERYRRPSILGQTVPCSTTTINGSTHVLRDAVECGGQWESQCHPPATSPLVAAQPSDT

With `C[C@H](N)Cn1ncc2ccc(O)cc21`, the inhibition in the series filed under Homo sapiens [1] amounted to 6.53%; in series [2], 10.4%; in [3], 7.43%; in [4] it was 5.87%; in [5], 13.6%; in series [6], 24.8%. Moreover, the inhibition is 22.8% in series [7]; 19.6% in [8]; 0.41% in series [9]; 2.11% in the series listed under Homo sapiens [10]; 63.3% in series [12]; 15.1% in [13]. Besides, the inhibition stood at 5.17% in [14], 2.01% in [15] and 21.9% in series [17]. The inhibition at 0.1 µM in [11] was determined as 12%. In [16], this molecule displayed a Ki of 515 nM.
